Where two headings read alike, the source gives them in different places.
Columns and labels:
Type in all cases: cell-based
CDK9 = biological target: T1, CDK9 (Homo sapiens, UniProt P50750); assay: HiBit Assay Protocol for CDK9 (HIBIT protein quantification, degradation); settings: HEK293-CDK9-Hibit cells, compound treatment for 6 hours; for Dmax: read-out: CDK9 HIBIT Protein Quantification Maximum
T1 construct: host or cells: HEK293-CDK9-Hibit
Protocol: HiBit Assay Protocol for CDK9
• 1. The culture medium for HEK293-CDK9-Hibit cell was prepared using DMEM with 10% FBS. • 2. Cells were cultivated in T-75 flasks in a cell culture incubator set at 37° C., 5% CO2, 95% relative humidity. Cells were allowed to reach 80-90% confluence before detaching and splitting. • 3. Cultivated cells were rinsed in T-75 flasks with 5 mL PBS. Aspirated off. Added 1.5 mL trypsin, and incubated the cells at 37° C. for approximately 5 minutes or until the cells detached and floated. • 4. Trypsin was inactivated by adding excess serum containing medium. • 5. Cells were harvested from flask into cell culture medium and then the cell number was counted. HEK293-CDK9-Hibit cells were seeded into 384-well plate (cell density: 1.6×10^5 cells/well/50 uL medium) in DMEM medium according to the plate map below and were incubated overnight at 37° C. and 5% CO2. • Note: Cell Cultured Medium: 90% DMEM+10% FBS+1% Penicillin-Streptomycin Liquid
• 1. Test compounds were dissolved at 3 mM DMSO stock solution. Transferred 45 uL of stock solution to a 384 pp-plate. Perform 3-fold, 10-point dilution via transferring 15 uL compound into 30 uL DMSO by using TECAN liquid handler. • 2. The plates were spinned at room temperature at 1,000 RPM for 1 minute. • 3. Transferred 50 nL of diluted compound from compound source plate into the cell plate by Echo. • 4. After compound treatment for 6 hours, removed the plate from incubators and equilibrated at room temperature for 15 minutes. Prepared the HiBit reagent consists of the following ratios: 10 mL of Nano-Glo®-HiBiT Lytic Buffer, 200 uL of Nano-Glo®-HiBiT Lytic Substrate and 100 uL of LgBiT Protein, mixed thoroughly. Added 20 uL of HiBit reagent into each well and spinned the plates at room temperature at 1,000 RPM for 1 minute to be detected. Plates were then shaken at 600 RPM at room temperature for 20 minutes, and read by EnVision. • 5. The inhibition activity was calculated following the formula below:
[formula] • Note: Where HC was obtained from cells treated with 0.1% DMSO only; LC was obtained from culture medium only. • 6. The ABS DC50 was calculated by fitting the Curve using Xlfit (v5.3.1.3), equation 201: […]

CCNE1 = biological target: T2, CCNE1 (Homo sapiens, UniProt P24864); assay: HiBit Assay Protocol for CCNE1 (HIBIT protein quantification, degradation); settings: HEK293-CCNE1-Hibit cells, compound treatment for 6 hours
T2 construct: host or cells: HEK293-CCNE1-Hibit
Protocol: HiBit Assay Protocol for CCNE1
• 1. The culture medium for HEK293-CCNE1-Hibit cell was prepared using EMEM with […]. • 2. Cells were cultivated in T-75 flasks in a cell culture incubator set at 37° C., 5% CO2, 95% relative humidity. Cells were allowed to reach 80-90% confluence before detaching and splitting. • 3. Cultivated cells were rinsed in T-75 flasks with 5 mL PBS. Aspirate off Added was 1.5 mL trypsin, and the cells were incubated at 37° C. for approximately 5 minutes or until the cells detached and floated. • 4. Trypsin was inactivated by adding excess serum containing medium. • 5. Cells were harvested from flask into cell culture medium and then the cell number was counted. HEK293-CCNE1-Hibit cell were seeded into 384-well plate (cell density: 1.6×10^5 cells/well/50 uL medium) in EMEM medium according to the plate map below and incubated overnight at 37° C. and […]. • Note: Cell Cultured Medium: 90% EMEM+10% FBS+1% Penicillin-Streptomycin Liquid
(§1) • 1. Test compounds were dissolved at 10 mM DMSO stock solution. 45 μL of stock solution was transferred to a 384 pp-plate. A 3-fold, 10-point dilution was performed via transferring 15 uL compound into 30 uL DMSO by using TECAN liquid handler. • 2. The plates were spinned at room temperature at 1,000 RPM for 1 minute. • 3. 50 nL of diluted compound was transferred from compound source plate into the cell plate by Echo. • 4. After compound treatment for 6 hours, the plate was removed from incubators and equilibrated at room temperature for 15 minutes. The HiBit reagent was prepared, consisting of the following ratios: 10 mL of Nano-Glo®-HiBiT Lytic Buffer, 200 μL of Nano-Glo®-HiBiT Lytic Substrate and 100 μL of LgBiT Protein, mix thoroughly. 20 μL of HiBit reagent was added into each well and the plates were spinned at room temperature at 1,000 RPM for 1 minute to be detected. Then the plates were shaken at 600 RPM at room temperature for 20 minutes, and read by EnVision. • 5. The inhibition activity was calculated following the formula below:
(§2) [formula] • Note: Where HC is obtained from cells treated with […] only; LC is obtained from culture medium only. • 6. ABS DC50 was calculated by fitting the Curve using Xlfit (v5.3.1.3), equation 201: […]

CDK2 = biological target: T3, CDK2 (Homo sapiens, UniProt P24941); assay: HiBit Assay Protocol for CDK2 (HIBIT protein quantification, degradation); settings: HEK293-CDK2-Hibit cells, compound treatment for 6 hours; for DC50: ABS DC50
T3 construct: host or cells: HEK293-CDK2-Hibit
Protocol: HiBit Assay Protocol for CDK2
• 1. The culture medium for HEK293-CDK2-Hibit cells was prepared using DMEM with 10% FBS. • 2. Cells were cultivated in T-75 flasks in a cell culture incubator set at 37° C., 5% CO2, 95% relative humidity. Cells were allowed to reach 80-90% confluence before detaching and splitting. • 3. Cultivated cells were rinsed in T-75 flasks with 5 mL PBS. Aspirate off Added was 1.5 mL trypsin, and the cells were incubated at 37° C. for approximately 5 minutes or until the cells detached and floated. • 4. Trypsin was inactivated by adding excess serum containing medium. • 5. Cells were harvested from flask into cell culture medium and then the cell number was counted. HEK293-CDK2-Hibit cells were seeded into 384-well plate (cell density: 1.6×10^5 cells/well/50 uL medium) in DMEM medium according to the plate map below and incubated overnight at 37° C. and 5% CO2. • Note: Cell Cultured Medium: 90% DMEM+10% FBS+1% Penicillin-Streptomycin Liquid
as §1, with “mM DMS” for “mM DMSO”, “45 uL” for “45 μL”, “100 uL” for “100 μL”, “Protein, mixed” for “Protein, mix”
as §2

T1 sequence (P50750 whole entry): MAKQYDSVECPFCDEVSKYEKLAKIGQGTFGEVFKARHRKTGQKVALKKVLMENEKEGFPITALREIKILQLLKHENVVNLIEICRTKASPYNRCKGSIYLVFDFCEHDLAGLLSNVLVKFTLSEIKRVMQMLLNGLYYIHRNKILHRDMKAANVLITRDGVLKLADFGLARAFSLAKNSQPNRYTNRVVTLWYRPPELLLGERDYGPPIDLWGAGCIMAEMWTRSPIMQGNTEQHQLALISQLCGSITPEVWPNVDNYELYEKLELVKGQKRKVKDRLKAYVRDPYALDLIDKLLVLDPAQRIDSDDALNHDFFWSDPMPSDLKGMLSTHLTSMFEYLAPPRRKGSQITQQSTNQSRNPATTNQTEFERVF
T2 sequence (P24864 whole entry): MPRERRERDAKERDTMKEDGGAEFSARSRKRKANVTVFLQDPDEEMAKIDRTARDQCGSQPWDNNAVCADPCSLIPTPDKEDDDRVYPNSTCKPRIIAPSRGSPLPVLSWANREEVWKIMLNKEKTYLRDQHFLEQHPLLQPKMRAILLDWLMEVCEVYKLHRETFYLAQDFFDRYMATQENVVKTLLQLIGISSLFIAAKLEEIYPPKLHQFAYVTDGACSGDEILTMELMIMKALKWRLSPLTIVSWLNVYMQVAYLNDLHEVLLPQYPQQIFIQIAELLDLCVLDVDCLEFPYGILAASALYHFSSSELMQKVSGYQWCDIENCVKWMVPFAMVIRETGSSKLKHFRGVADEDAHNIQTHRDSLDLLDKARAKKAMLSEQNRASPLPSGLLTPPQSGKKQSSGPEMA

SMILES	CDK9 HIBIT Protein Quantification Maximum (CDK9)	CCNE1 HIBIT Protein Quantification Maximum (CCNE1)	CDK2 HIBIT Protein Quantification Maximum (CDK2)	DC50 (CDK2)	Dmax (CDK9; 6 h)	Dmax (CDK9)
CC(c1cc(S(=O)(=O)N2CC[C@H](Nc3ncc4c(n3)N([C@@H]3CCC[C@@H](O)C3)C(=O)C43CC3)[C@H](F)C2)ccc1F)N1CCC(c2ccc3c(N4CCC(=O)NC4=O)nn(C)c3c2)CC1 (single isomer, unassigned) [Compound 201, 1-(6-{1-[(1R*)-1-{2-Fluoro-5-[(3R,4S)-3-fluoro-4-{7′-[(1R,3R)-3-hydroxycyclohexyl]-6′-oxospiro[cyclopropane-1,5′-pyrrolo[2,3-d]pyrimidin]-2′-ylamino}piperidin-1-ylsulfonyl]phenyl}ethyl]piperidin-4-yl}-1-methylindazol-3-yl)-1,3-diazinane-2,4-dione]	23%	47%	88%	5.66 nM		
CC(C)[C@H]1CN([C@@H](C)c2cccc(S(=O)(=O)N3CC[C@H](Nc4ncc5c(n4)N([C@@H]4CCC[C@@H](O)C4)C(=O)C54CC4)[C@H](F)C3)c2)CCN1c1ccc2c(N3CCC(=O)NC3=O)nn(C)c2c1 (single isomer, unassigned) [Compound 202]		37%	88%	10.9 nM	20%	
O=C1CCC(N2Cc3cc(N4CCN(C5CN(c6cccc(S(=O)(=O)N7CCC(Nc8ncc9c(n8)N([C@H]8CCC[C@H](O)C8)C(=O)C98CC8)CC7)c6)C5)CC4)ccc3C2=O)C(=O)N1 (stereo in doubt) [Compound 133, 3-[5-(4-{1-[3-(4-{7′-[(1S,3S)-3-Hydroxycyclohexyl]-6′-oxospiro[cyclopropane-1,5′-pyrrolo[2,3-d]pyrimidin]-2′-ylamino}piperidin-1-ylsulfonyl)phenyl]azetidin-3-yl}piperazin-1-yl)-1-oxo-3H-isoindol-2-yl]piperidine-2,6-dione]		26%	61%	9.23 nM	14%	
Cn1nc(N2CCC(=O)NC2=O)c2ccc(C3CCN(Cc4cncc(S(=O)(=O)N5CCC(Nc6ncc7c(n6)N([C@H]6CCC[C@H](O)C6)C(=O)C76CC6)CC5)c4)CC3)cc21 (stereo in doubt) [Compound 161, 1-[6-(1-{[5-(4-{7′-[(1S,3S)-3-Hydroxycyclohexyl]-6′-oxospiro[cyclopropane-1,5′-pyrrolo[2,3-d]pyrimidin]-2′-ylamino}piperidin-1-ylsulfonyl)pyridin-3-yl]methyl}piperidin-4-yl)-1-methylindazol-3-yl]-1,3-diazinane-2,4-dione]		45%	79%	6.06 nM		17%
CC1CCCC1N1C(=O)C2(CC2)c2cnc(NC3CCN(S(=O)(=O)N4CC5(CCN(C(=O)Cc6ccc7c(c6)n(C)c(=O)n7C6CCC(=O)NC6=O)CC5)C4)CC3)nc21 (stereo not shown) [Compound 54]			14%		4%	
CC1CCCC1N1C(=O)C2(CC2)c2cnc(NC3CCN(S(=O)(=O)N4CC5C4CCN5C(=O)CCCCc4cccc5c4n(C)c(=O)n5C4CCC(=O)NC4=O)CC3)nc21 (stereo not shown) [Compound 98]			31%		15%	
CC1CCCC1N1C(=O)C2(CC2)c2cnc(NC3CCN(S(=O)(=O)C4CCCN(C(=O)CCCCc5ccc6c(c5)n(C)c(=O)n6C5CCC(=O)NC5=O)C4)CC3)nc21 (stereo not shown) [Compound 115]			23%		7%	
C[C@H]1CN(c2ccc3c(N4CCC(=O)NC4=O)nn(C)c3c2)CCN1[C@@H](C)c1cccc(S(=O)(=O)N2CC[C@H](Nc3ncc4c(n3)N([C@@H]3CCC[C@@H](O)C3)C(=O)C43CC3)[C@H](F)C2)c1 [Compound 194]		42%	94%	3.86 nM		
C[C@H](c1cc(S(=O)(=O)N2CC[C@H](Nc3ncc4c(n3)N([C@@H]3CCC[C@@H](O)C3)C(=O)C43CC3)[C@H](F)C2)ccc1F)N1CCN(c2ccc3c(N4CCC(=O)NC4=O)nn(C)c3c2)CC1 [Compound 210]		47%	91%	4.7 nM		
C[C@@H](c1cc(S(=O)(=O)N2CC[C@H](Nc3ncc4c(n3)N([C@@H]3CCC[C@@H](O)C3)C(=O)C43CC3)[C@H](F)C2)ccc1F)N1CCN(c2ccc3c(N4CCC(=O)NC4=O)nn(C)c3c2)CC1 [Compound 211]		40%	88%	12.1 nM		
